The test system of one experiment is Cholesterol Synthesis. Kind of experiment: AICS screen: inhibition of cholesterol synthesis in rats (plasma [14C]cholesterol after sodium [1-14C]-acetate). In kind it is in vivo. As to conditions: Rattus norvegicus, 50 min; 1.0 mg/kg, single dose, oral gavage, male Sprague-Dawley rats fed 5% cholestyramine; acetate one hour after drug, blood after 50 minutes. The procedure: The ability of compounds of the present invention to inhibit the biosynthesis of cholesterol was also measured by a method (designated AICS screen) which utilizes the procedure described by A. W. Alberts et al, Proc. Natl. Acad. Sci., (1980), 77, pp 3957-3961.
In this method male Sprague-Dawley rats (200 g body weight) previously fed 5% cholestyramine for three days were randomly divided into groups (N=5/group) and given a single dose of vehicle (controls) or compound by an oral gavage at the indicated doses. One hour after drug dosing, all rats were injected intraperitoneally with sodium[1-^14 C]-acetate (18.75 μCi/rat in 0.2 ml saline). After 50 minutes, blood samples were taken, plasma obtained by centrifugation, and plasma [^14 C]cholesterol measured after saponification and extraction.

Experiment [1] deals with sterol synthesis (cholesterol biosynthesis) in rat liver homogenate. As to the kind of experiment: CSI screen: inhibition of sterol/cholesterol synthesis (14C-acetate incorporation into nonsaponifiable lipid) by rat liver homogenate. In kind it is biochemical. The settings on record: one-hour period, rats fed 5% cholestyramine for four days, 60 min, read-out: CSI/IC50 (concentration required for 50% inhibition of sterol synthesis). The procedure:
The ability of compounds of the present invention to inhibit the biosynthesis of cholesterol was measured by a method (designated CSI screen) which utilizes the procedure described by R. E. Dugan, et al, Archiv. Biochem. Biophys., (1972), 152, 21-27. In this method, the level of HMG-CoA enzyme activity in standard laboratory rats is increased by feeding the rats a chow diet containing 5% cholestyramine for four days, after which the rats are sacrificed.
The rat livers are homogenized, and the incorporation of […] into nonsaponifiable lipid by the rat liver homogenate is measured. The micromolar concentration of compound required for 50% inhibition of sterol synthesis over a one-hour period is measured, and expressed as an IC50 value.

Where a name gives a salt, the structure may show the parent alone.

Take `COC(=O)c1c(C(C)C)nc(C(C)C)c(/C=C/[C@@H]2C[C@@H](O)CC(=O)O2)c1-c1ccc(F)cc1` (relative stereo) [Example 13, [2α,4β-(E)]-4-(4-fluorophenyl)-2,6-bis(1-methylethyl)-5-[2-(tetrahydro-4-hydroxy-6-oxo-2H-pyran-2-yl)ethenyl]-3-pyridinecarboxylic acid, methyl ester]: in the experiment with Cholesterol Synthesis, the change in vivo at 1 mg/kg is -67%.

Turning to `C=Cc1c(C)nc(C(C)C)c(/C=C/[C@@H]2C[C@@H](O)CC(=O)O2)c1-c1ccc(F)cc1` (relative stereo) [Example 40, [4α,6β(E)]-6-[2-[5-ethenyl-4-(4-fluorophenyl)-6-methyl-2-(1-methylethyl)-3-pyidinyl]ethenyl]tetrahydro-4-hydroxy-2H-pyran-2-one], the change in vivo at 1 mg/kg with Cholesterol Synthesis is -68%.

Take `O=C1C[C@H](O)C[C@@H](/C=C/c2c(-c3ccc(F)cc3)cc(C(F)F)nc2C(F)(F)F)O1` (relative stereo) [Example 24]: the change in vivo at 1 mg/kg with Cholesterol Synthesis was -54%.

`CC(C)c1nc(-c2ccccc2)cc(-c2ccc(F)cc2)c1/C=C/[C@@H](O)C[C@@H](O)CC(=O)O` (relative stereo) [Example 31, [R*,S*-(E)]-7-[2-[4-(4-fluorophenyl)-2-(1-methylethyl)-6-phenyl-3-pyridinyl]ethenyl]-3,5-dihydroxy-6-heptenoic acid, monosodium salt]: the IC50 in experiment [1] came to 58 nM.

As for `Cc1cc(C)c(/C=C/[C@@H](O)C[C@@H](O)CC(=O)O)c(-c2ccc(F)cc2)n1` (relative stereo) [Example 29, [R*,S*-(E)]-7-[2-(4-fluorophenyl)-4,6-dimethyl-3-pyridinyl]-3,5-dihydroxy-6-heptenoic acid, monosodium salt], in experiment [1], the IC50 is 50 nM.

Regarding `CCc1nc(CC)c(C(=O)OC)c(-c2ccc(F)cc2)c1/C=C/[C@@H](O)C[C@@H](O)CC(=O)O` (relative stereo) [Example 35, [R*,S*-(E)]-5-(6-carboxy-3,5-dihydroxy-1-hexenyl)-2,6-diethyl-4-(4-fluorophenyl)-, methyl ester, 3-pyridinecarboxylic acid, monosodium salt], the IC50 in experiment [1] was 44 nM.

On to `Cc1nccc(-c2ccccc2)c1CC[C@H]1C[C@H](O)CC(=O)O1` (relative stereo) [Example 4, trans-Tetrahydro-4-hydroxy-6-[2-(2-methyl-4-phenyl-3-pyridinyl)ethyl]-2H-pyran-2-one], for which, in experiment [1], the IC50 is 420 nM.

Consider `COC(=O)c1c(C(C)C)nc(C)c(/C=C/[C@@H](O)C[C@@H](O)CC(=O)O)c1-c1ccc(F)cc1` (relative stereo) [Example 10, [R*,S*-(E)]-5-(6-carboxy-3,5-dihydroxy-1-hexenyl)-4-(4-fluorophenyl)-6-methyl-2-(1-methylethyl)-, 3-methyl ester, 3-pyridinecarboxylic acid, monosodium salt], for which the IC50 in experiment [1] was 70 nM.

In the case of `CCc1cc(-c2ccc(F)cc2)c(/C=C/[C@@H](O)C[C@@H](O)CC(=O)O)c(CC)n1` (relative stereo) [Example 27, [R*,S*-(E)]-7-[2,6-diethyl-4-4-(fluorophenyl)-3-pyridinyl]-3,5-dihydroxy-6-heptenoic acid, monosodium salt], in experiment [1], the IC50 is 32 nM.

With `Cc1nccc(-c2ccccc2)c1/C=C/[C@@H]1C[C@@H](O)CC(=O)O1` (relative stereo) [Example 1, [4α,6β(E)]-Tetrahydro-4-hydroxy-6-[2-(2-methyl-4-phenyl-3-pyridinyl)ethenyl]-2H-pyran-2-one], the IC50 in experiment [1] came to 360 nM.

Regarding `COc1c(C)nc(C(C)C)c(/C=C/[C@@H](O)C[C@@H](O)CC(=O)O)c1-c1ccc(F)cc1` (relative stereo) [Example 39, [R*,S*-(E)]-7-[4-(4-fluorophenyl)-5-methoxy-6-methyl-2-(1-methylethyl)-3-pyridinyl]-3,5-dihydroxy-6-heptenoic acid, monosodium salt], in experiment [1], the IC50 came out at 8 nM.

With `COC(=O)c1c(C(C)C)nc(C(C)C)c(/C=C/[C@@H](O)C[C@@H](O)CC(=O)O)c1-c1ccc(F)cc1` (relative stereo) [Example 14, [R*,S*-(E)]-5-(6-carboxy-3,5-dihydroxy-1-hexenyl)-4-(4-fluorophenyl)-2,6-bis-1-methylethyl)-, methyl ester-3-pyridinecarboxylic acid, sodium salt], the IC50 in experiment [1] came out at 79 nM.

For `C=Cc1c(C)nc(C(C)C)c(/C=C/[C@@H](O)C[C@@H](O)CC(=O)O)c1-c1ccc(F)cc1` (relative stereo) [Example 41, [R*,S*-(E)]-7-[5-ethenyl-4-(4-fluorophenyl)-6-methyl-2-(1-methylethyl)-3-pyridinyl]-3,5-dihydroxy-6-heptenoic acid, monosodium salt], in experiment [1], the IC50 stood at 11 nM.

Turning to `CC(C)c1cc(-c2ccc(F)cc2)c(/C=C/[C@@H](O)C[C@@H](O)CC(=O)O)c(C(C)C)n1` (relative stereo) [Example 16, [R*,S*(E)]-7-[4-(4-fluorophenyl)-2,6-bis(1-methylethyl)-3-pyridinyl]-3,5-dihydroxy-6-heptenoic acid, monosodium salt], the IC50 in experiment [1] is 30 nM.

As to `CCc1nc(CC)c(CO)c(-c2ccc(F)cc2)c1/C=C/[C@@H](O)C[C@@H](O)CC(=O)O` (relative stereo) [Example 37, [R*,S*-(E)]-7-[2,6-diethyl-4-(4-fluorophenyl)-5-(hydroxymethyl)-3-pyridinyl]-3,5-dihydroxy-6-heptenoic acid, monosodium salt], the IC50 in experiment [1] is 24 nM.

For the compound `Cc1cc(-c2ccc(F)cc2)c(/C=C/[C@@H](O)C[C@@H](O)CC(=O)O)c(C)n1` (relative stereo) [Example 8, [R*,S*(E)]-7-[4-(4-Fluorophenyl)-2,6-dimethyl-3-pyridinyl]-3,5-dihydroxy-6-heptenoic acid, sodium salt], the IC50 in experiment [1] stood at 72 nM.

In the case of `CCCNC(=O)c1c(C(C)C)nc(C(C)C)c(/C=C/[C@@H](O)C[C@@H](O)CC(=O)O)c1-c1ccc(F)cc1` (relative stereo) [Example 33, [R*,S*-(E)]-7-[4-(4-fluorophenyl)-2,6-bis(1-methylethyl)-5-[(propylamino)carbonyl]-3-pyridinyl]-3,5-dihydroxy-6-heptenoic acid, monosodium salt], the IC50 in experiment [1] was found to be 20 nM.

As for `Cc1cc(-c2ccc(F)cc2)c(/C=C/[C@@H](O)C[C@@H](O)CC(=O)O)c(C(F)(F)F)n1` (relative stereo) [Example 23, [R*,S*-(E)]-7-[4-(4-fluorophenyl)-6-methyl-2-(trifluoromethyl)-3,5-dihydroxy-6-heptenoic acid, monosodium salt], in experiment [1], the IC50 came out at 50 nM.

Consider `CCOC(=O)c1c(C)nc(C)c(/C=C/[C@@H](O)C[C@@H](O)CC(=O)O)c1-c1ccc(F)cc1` (relative stereo) [Example 12, [R*,S*-(E)]-5-(6-carboxy-3,5-dihydroxy-1-hexenyl)-4-(4-fluorophenyl)-2,6-dimethyl-, 3-ethyl ester, 3-pyridinecarboxylic acid, monosodium salt], for which the IC50 in experiment [1] was 140 nM.

Consider `Cc1cc(-c2ccccc2)c(/C=C/[C@@H]2C[C@@H](O)CC(=O)O2)c(C)n1` (relative stereo) [Example 2, [4α,6β(E)]-6-[2-(2,6-Dimethyl-4-phenyl-3-pyridinyl)ethenyl]tetrahydro-4-hydroxy-2H-pyran-2-one], for which, in experiment [1], the IC50 is 180 nM.

Take `Cc1cc(-c2ccccc2)c(/C=C/[C@@H](O)C[C@@H](O)CC(=O)O)c(C)n1` (relative stereo) [Example 3, [R*,S*(E)]-7-(2,6-dimethyl-4-phenyl-3-pyridinyl)-3,5-dihydroxy-6-heptenoicacid, sodium salt]: the IC50 in experiment [1] amounted to 230 nM.

For the compound `Cc1nc(C)c(/C=C/[C@@H](O)C[C@@H](O)CC(=O)O)c(-c2ccc(F)cc2)c1C#N` (relative stereo) [Example 6, [R*,S*(E)]-7-[5-Cyano-4-(4-fluorophenyl)-2,6-dimethyl-3-pyridinyl]-3,5-dihydroxy-6-heptenoic acid, sodium salt], in experiment [1], the IC50 was determined as 62 nM.

As to `Cc1cc(-c2ccc(F)cc2)c(/C=C/[C@@H](O)C[C@@H](O)CC(=O)O)c(C(C)C)n1` (relative stereo) [Example 20, [R*,S*-(E)]-7-[4-(4-fluorophenyl)-6-methyl-2-(1-methylethyl)-3-pyridinyl-3,5-dihydroxy-6-heptenoic acid, sodium salt], in experiment [1], the IC50 was 16 nM.

For `O=C(O)C[C@H](O)C[C@H](O)/C=C/c1c(-c2ccc(F)cc2)cc(C(F)F)nc1C(F)(F)F` (relative stereo) [Example 25, [R*,S*-(E)]-7-[6-(difluoromethyl)-4-(4-fluorophenyl)-2-(trifluoromethyl)-3-pyridinyl]-3,5-dihydroxy-6-heptenoic acid, monosodium salt], the IC50 in experiment [1] was 71 nM.

As to `Cc1cc(-c2ccc(F)cc2)c(/C=C/[C@@H]2C[C@@H](O)CC(=O)O2)c(C)n1` (relative stereo) [Example 7, [4α,6β(E)]-6-[2-[4-(4-Fluorophenyl)-2,6-dimethyl-3-pyridinyl]ethenyl]tetrahydro-4-hydroxy-2H-pyran-2-one], in experiment [1], the IC50 is 68 nM.

For the origin of these results see US4906624A, “6-(((Substituted)pyridin-3-yl)alkyl)-and alkenyl)-tetrahydro-4-hydroxypyran-2-one inhibitors of cholesterol biosynthesis” (Warner-Lambert Company, priority 1988, dated 1990).
